Experimental data taken from paper PMC3914206.

Assays:
Assay type in all cases: binding
panel of 442 kinases [1] = molecular target: T1, panel of 442 kinases (Homo sapiens, UniProt Q15349); conditions: compound concentration 10 µM; for % Ctrl, RSK3(Kin.Dom.1-N-terminal): kinase RSK3(Kin.Dom.1-N-terminal); for % Ctrl, RSK3(Kin.Dom.2-C-terminal): kinase RSK3(Kin.Dom.2-C-terminal)
T1 construct: purchased KINOMEscan
Source text: (§1) We assessed the selectivity of members of this scaffold using the KINOMEscan methodology across a near comprehensive panel of 442 kinases [[18,27]].

panel of 442 kinases [2] = molecular target: T2, panel of 442 kinases (Homo sapiens, UniProt Q00536); conditions: Compound Concentration 10 µM
T2 construct: purchased KINOMEscan
Source text: as §1

panel of 442 kinases [3] = molecular target: T3, panel of 442 kinases (Homo sapiens, UniProt Q15418); conditions: Compound Concentration 10 µM
T3 construct: purchased KINOMEscan
Source text: as §1

panel of 442 kinases [4] = molecular target: T4, panel of 442 kinases (Homo sapiens, UniProt O75676); conditions: Compound Concentration 10 µM
T4 construct: purchased KINOMEscan
Source text: as §1

T1 sequence (Q15349 whole entry): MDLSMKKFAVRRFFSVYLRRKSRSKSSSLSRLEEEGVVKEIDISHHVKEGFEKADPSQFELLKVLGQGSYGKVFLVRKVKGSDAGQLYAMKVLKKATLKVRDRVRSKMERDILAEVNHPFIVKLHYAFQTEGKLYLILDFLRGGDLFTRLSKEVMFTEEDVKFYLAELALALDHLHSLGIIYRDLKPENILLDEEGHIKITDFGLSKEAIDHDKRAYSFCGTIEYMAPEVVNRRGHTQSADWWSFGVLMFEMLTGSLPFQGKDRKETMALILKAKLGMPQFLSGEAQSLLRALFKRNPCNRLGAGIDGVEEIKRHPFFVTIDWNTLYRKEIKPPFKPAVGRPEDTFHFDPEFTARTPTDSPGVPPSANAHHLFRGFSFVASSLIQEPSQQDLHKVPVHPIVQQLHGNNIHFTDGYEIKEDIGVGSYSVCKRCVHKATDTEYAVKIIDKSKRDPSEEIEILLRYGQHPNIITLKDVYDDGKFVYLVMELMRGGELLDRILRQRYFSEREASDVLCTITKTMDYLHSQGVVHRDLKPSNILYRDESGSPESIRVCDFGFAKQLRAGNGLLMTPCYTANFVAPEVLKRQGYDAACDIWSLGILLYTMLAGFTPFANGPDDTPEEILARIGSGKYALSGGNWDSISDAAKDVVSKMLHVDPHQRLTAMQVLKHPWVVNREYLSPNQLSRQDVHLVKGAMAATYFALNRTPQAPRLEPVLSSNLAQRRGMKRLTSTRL
T2 sequence (Q00536 whole entry): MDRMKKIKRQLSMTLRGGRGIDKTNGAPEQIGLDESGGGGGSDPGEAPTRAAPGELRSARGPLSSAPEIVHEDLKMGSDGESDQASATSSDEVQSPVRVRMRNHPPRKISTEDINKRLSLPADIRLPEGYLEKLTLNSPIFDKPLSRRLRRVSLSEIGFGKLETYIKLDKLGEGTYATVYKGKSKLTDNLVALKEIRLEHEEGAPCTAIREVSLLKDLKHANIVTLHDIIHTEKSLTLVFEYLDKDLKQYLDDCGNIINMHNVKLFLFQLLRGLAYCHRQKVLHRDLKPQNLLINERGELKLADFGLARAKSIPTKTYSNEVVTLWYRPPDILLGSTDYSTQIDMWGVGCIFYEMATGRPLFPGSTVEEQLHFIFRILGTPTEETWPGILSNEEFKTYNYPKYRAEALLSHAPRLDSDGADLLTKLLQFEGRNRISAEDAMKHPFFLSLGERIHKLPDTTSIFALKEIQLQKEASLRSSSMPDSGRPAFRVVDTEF
T4 sequence (O75676 whole entry): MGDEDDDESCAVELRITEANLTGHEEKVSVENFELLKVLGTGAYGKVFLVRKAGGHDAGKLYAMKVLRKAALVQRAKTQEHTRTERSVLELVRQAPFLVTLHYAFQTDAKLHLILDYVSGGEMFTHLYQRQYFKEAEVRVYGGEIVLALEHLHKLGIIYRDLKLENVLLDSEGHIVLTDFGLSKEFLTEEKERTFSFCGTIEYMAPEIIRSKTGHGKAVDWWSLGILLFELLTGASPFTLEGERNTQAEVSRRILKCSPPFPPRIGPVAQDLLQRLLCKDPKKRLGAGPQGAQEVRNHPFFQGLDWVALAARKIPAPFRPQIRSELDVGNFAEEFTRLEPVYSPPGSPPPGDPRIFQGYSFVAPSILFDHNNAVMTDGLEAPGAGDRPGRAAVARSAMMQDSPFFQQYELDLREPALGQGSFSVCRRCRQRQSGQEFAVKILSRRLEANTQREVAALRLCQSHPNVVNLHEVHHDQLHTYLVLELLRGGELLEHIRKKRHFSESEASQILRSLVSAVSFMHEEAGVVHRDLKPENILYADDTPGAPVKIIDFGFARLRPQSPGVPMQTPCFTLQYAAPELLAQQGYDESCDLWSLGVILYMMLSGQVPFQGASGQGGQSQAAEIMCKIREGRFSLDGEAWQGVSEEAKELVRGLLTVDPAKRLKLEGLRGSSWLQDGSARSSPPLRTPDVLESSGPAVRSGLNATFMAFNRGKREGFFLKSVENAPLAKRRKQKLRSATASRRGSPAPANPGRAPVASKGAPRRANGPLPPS
T3 sequence (Q15418 whole entry): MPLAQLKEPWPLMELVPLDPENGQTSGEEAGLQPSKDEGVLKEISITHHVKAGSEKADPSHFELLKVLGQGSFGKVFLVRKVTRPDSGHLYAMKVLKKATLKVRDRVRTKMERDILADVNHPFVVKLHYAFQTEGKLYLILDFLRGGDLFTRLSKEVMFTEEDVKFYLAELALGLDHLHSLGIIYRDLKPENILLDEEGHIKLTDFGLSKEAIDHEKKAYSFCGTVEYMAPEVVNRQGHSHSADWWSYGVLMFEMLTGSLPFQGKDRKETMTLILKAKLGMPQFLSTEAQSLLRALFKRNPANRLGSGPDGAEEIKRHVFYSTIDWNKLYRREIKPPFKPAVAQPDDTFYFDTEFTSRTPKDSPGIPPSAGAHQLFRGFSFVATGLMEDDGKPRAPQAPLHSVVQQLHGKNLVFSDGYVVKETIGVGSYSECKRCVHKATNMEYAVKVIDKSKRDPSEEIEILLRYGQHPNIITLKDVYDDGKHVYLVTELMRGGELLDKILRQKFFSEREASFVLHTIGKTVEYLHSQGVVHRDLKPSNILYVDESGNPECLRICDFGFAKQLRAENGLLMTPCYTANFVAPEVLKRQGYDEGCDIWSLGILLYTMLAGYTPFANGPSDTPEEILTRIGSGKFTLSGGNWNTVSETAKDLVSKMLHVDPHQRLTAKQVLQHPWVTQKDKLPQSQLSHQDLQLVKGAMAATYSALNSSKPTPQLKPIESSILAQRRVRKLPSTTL

| SMILES | % Ctrl, RSK3(Kin.Dom.1-N-terminal) (panel of 442 kinases [1]) [% Ctrl] | % Ctrl, RSK3(Kin.Dom.2-C-terminal) (panel of 442 kinases [1]) [% Ctrl] | KINOMEscan: PCTK1 (panel of 442 kinases [2]) | KINOMEscan: RSK1(Kin.Dom.1-N-terminal) (panel of 442 kinases [3]) | KINOMEscan: RSK1(Kin.Dom.2-C-terminal) (panel of 442 kinases [3]) | KINOMEscan: RPS6KA4(Kin.Dom.1-N-terminal) (panel of 442 kinases [4]) | KINOMEscan: RPS6KA4(Kin.Dom.2-C-terminal) (panel of 442 kinases [4]) |
| --- | --- | --- | --- | --- | --- | --- | --- |
| COc1cc(C(=O)N2CCC(N3CCN(C)CC3)CC2)ccc1Nc1ncc2c(n1)N(C)c1ccccc1C(=O)N2C [15 (LRRK2-IN-1)] | 83 | 7.5 | 96 | 73 | 10 | 100 | 46 |
| COc1cc(C(=O)N2CCC(N3CCN(C)CC3)CC2)ccc1Nc1ncc2c(n1)N1CCc3cccc(c31)C(=O)N2C [Compound 24] | 100 | 13 | – | 71 | 22 | – | 0.65 |
| COc1cc(C(=O)N2CCC(N3CCN(C)CC3)CC2)ccc1Nc1ncc2c(n1)N(C1CCCC1)c1ccccc1C(=O)N2C [Compound 25, 11-cyclopentyl-2-((2-methoxy-4-(4-(4-methylpiperazin-1-yl)piperidine-1-carbonyl)phenyl)amino)-5-methyl-5H-benzo[e]pyrimido[5,4-b][1,4]diazepin-6(11H)-one] | 100 | 78 | 100 | 75 | 63 | 100 | 100 |
| CCOc1cc(C(=O)N2CCC(N3CCN(C)CC3)CC2)ccc1Nc1ncc2c(n1)N(C1CCCC1)c1ccccc1C(=O)N2C [Compound 26] | 100 | 83 | 100 | 100 | 88 | 100 | 100 |
